This note sets out measurements from PubChem BioAssay (NCI).

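In this assay, cells in 96-well plates receive the compound at five concentrations for 48 hours. Endpoints are linearly interpolated between the surrounding concentrations. TGI: concentration producing complete growth inhibition.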

The first test has as its system 786-0 renal. As to the kind of experiment: DTP human tumour cell line panel, 48 h.
`CCOc1ccc2c(c1)[n+]([O-])c(-c1ccc(Cl)cc1)c(N)[n+]2[O-]` came in with a total growth inhibition concentration (TGI) greater than 100 µM.
As to `C=CCN1C(=O)/C(=C/c2ccco2)N=C1SC/C=C/C`, the TGI was greater than 100 µM.
On the same count and under the same terms, the same measure for `CN(C)CC/C(=N\Nc1ccc([N+](=O)[O-])cc1)c1ccccc1`: 27.1 µM; for `Clc1ccc(C2SCc3nc4ccccc4n32)c(Cl)c1` (stereo not drawn): 31.9 µM.

In the next test the test system is A498 renal. Put plainly: DTP human tumour cell line panel, 48 h.
The molecule `CCOc1ccc2c(c1)[n+]([O-])c(-c1ccc(Cl)cc1)c(N)[n+]2[O-]` displayed a TGI greater than 100 µM.
Still for that read-out and setting: under `C=CCN1C(=O)/C(=C/c2ccco2)N=C1SC/C=C/C` stands greater than 100 µM; under `CN(C)CC/C(=N\Nc1ccc([N+](=O)[O-])cc1)c1ccccc1`, 27.2 µM; under `Clc1ccc(C2SCc3nc4ccccc4n32)c(Cl)c1` (stereo not drawn), 28.4 µM.

The next test relates to A549 NSCLC. Put plainly: DTP human tumour cell line panel, 48 h.
`CCOc1ccc2c(c1)[n+]([O-])c(-c1ccc(Cl)cc1)c(N)[n+]2[O-]` displayed a TGI greater than 100 µM.
For the molecule `C=CCN1C(=O)/C(=C/c2ccco2)N=C1SC/C=C/C`, the total growth inhibition concentration (TGI) was greater than 100 µM.
With `CN(C)CC/C(=N\Nc1ccc([N+](=O)[O-])cc1)c1ccccc1`, the TGI came out at 26.8 µM. This counts as double-digit micromolar.
Same read-out and setting: the same measure for `Clc1ccc(C2SCc3nc4ccccc4n32)c(Cl)c1` (stereo not drawn): 28.8 µM.

A further test concerns ACHN renal. Put plainly: DTP human tumour cell line panel, 48 h.
The molecule `CCOc1ccc2c(c1)[n+]([O-])c(-c1ccc(Cl)cc1)c(N)[n+]2[O-]` gave a TGI greater than 100 µM.
`C=CCN1C(=O)/C(=C/c2ccco2)N=C1SC/C=C/C` gave a concentration for total growth inhibition (TGI) greater than 100 µM.
In turn, `CN(C)CC/C(=N\Nc1ccc([N+](=O)[O-])cc1)c1ccccc1` came in with a concentration for total growth inhibition (TGI) of 6.81 µM.
Molecule `Clc1ccc(C2SCc3nc4ccccc4n32)c(Cl)c1` (stereo not drawn) showed a total growth inhibition concentration (TGI) of 28.7 µM.

A further test relates to BT-549 breast. As to the kind of experiment: DTP human tumour cell line panel, 48 h.
`C=CCN1C(=O)/C(=C/c2ccco2)N=C1SC/C=C/C` returned a TGI greater than 100 µM.

Another test concerns CAKI-1 renal. As to the kind of experiment: DTP human tumour cell line panel, 48 h.
As to `CCOc1ccc2c(c1)[n+]([O-])c(-c1ccc(Cl)cc1)c(N)[n+]2[O-]`, the TGI is greater than 100 µM.
Regarding `C=CCN1C(=O)/C(=C/c2ccco2)N=C1SC/C=C/C`, the TGI was greater than 100 µM.

For a further test, the system named is CCRF-CEM leukemia. As to the kind of experiment: DTP human tumour cell line panel, 48 h.
`C=CCN1C(=O)/C(=C/c2ccco2)N=C1SC/C=C/C` gave a TGI greater than 100 µM.
`CN(C)CC/C(=N\Nc1ccc([N+](=O)[O-])cc1)c1ccccc1` came in with a concentration for total growth inhibition (TGI) of 23.6 µM.
For the molecule `Clc1ccc(C2SCc3nc4ccccc4n32)c(Cl)c1` (stereo not drawn), the TGI is 40.8 µM.

The next test concerns COLO 205 colon. As to the kind of experiment: DTP human tumour cell line panel, 48 h.
In the case of `CCOc1ccc2c(c1)[n+]([O-])c(-c1ccc(Cl)cc1)c(N)[n+]2[O-]`, the TGI was greater than 100 µM.
Take `C=CCN1C(=O)/C(=C/c2ccco2)N=C1SC/C=C/C`: the concentration for total growth inhibition (TGI) is greater than 100 µM.
The molecule `CN(C)CC/C(=N\Nc1ccc([N+](=O)[O-])cc1)c1ccccc1` had a TGI of 28.5 µM. That is a double-digit micromolar value.
On the same count and under the same terms, under `Clc1ccc(C2SCc3nc4ccccc4n32)c(Cl)c1` (stereo not drawn) stands 31.5 µM.

The next test has as its system DLD-1 colon. Put plainly: DTP human tumour cell line panel, 48 h.
The molecule `CCOc1ccc2c(c1)[n+]([O-])c(-c1ccc(Cl)cc1)c(N)[n+]2[O-]` displayed a total growth inhibition concentration (TGI) greater than 100 µM.
On the same count and under the same terms, the same measure for `CN(C)CC/C(=N\Nc1ccc([N+](=O)[O-])cc1)c1ccccc1`: 27.2 µM; for `Clc1ccc(C2SCc3nc4ccccc4n32)c(Cl)c1` (stereo not drawn): 30.3 µM.

The next test relates to DMS 114 small cell lung. Put plainly: DTP human tumour cell line panel, 48 h.
Consider `CCOc1ccc2c(c1)[n+]([O-])c(-c1ccc(Cl)cc1)c(N)[n+]2[O-]`, for which the TGI is greater than 100 µM.
In turn, `CN(C)CC/C(=N\Nc1ccc([N+](=O)[O-])cc1)c1ccccc1` had a TGI of 18 µM.
For `Clc1ccc(C2SCc3nc4ccccc4n32)c(Cl)c1` (stereo not drawn), the TGI turned out to be 22.1 µM. The TGI values of the last two molecules are within 1.5-fold of each other.

Another test has as its system DMS 273 small cell lung. Put plainly: DTP human tumour cell line panel, 48 h.
Turning to `CCOc1ccc2c(c1)[n+]([O-])c(-c1ccc(Cl)cc1)c(N)[n+]2[O-]`, the concentration for total growth inhibition (TGI) was greater than 100 µM.
Same read-out and setting: under `CN(C)CC/C(=N\Nc1ccc([N+](=O)[O-])cc1)c1ccccc1` stands 22.3 µM.

In another test the test system is DU-145 prostate. Put plainly: DTP human tumour cell line panel, 48 h.
For the molecule `C=CCN1C(=O)/C(=C/c2ccco2)N=C1SC/C=C/C`, the TGI is greater than 100 µM.

A further test relates to EKVX NSCLC. As to the kind of experiment: DTP human tumour cell line panel, 48 h.
Turning to `CCOc1ccc2c(c1)[n+]([O-])c(-c1ccc(Cl)cc1)c(N)[n+]2[O-]`, the TGI is greater than 100 µM.
Consider `C=CCN1C(=O)/C(=C/c2ccco2)N=C1SC/C=C/C`, for which the concentration for total growth inhibition (TGI) was greater than 100 µM.
In turn, `CN(C)CC/C(=N\Nc1ccc([N+](=O)[O-])cc1)c1ccccc1` gave a TGI of 29.9 µM.
`Clc1ccc(C2SCc3nc4ccccc4n32)c(Cl)c1` (stereo not drawn): the TGI worked out at 24.9 µM.

Another test has as its system HCC-2998 colon. As to the kind of experiment: DTP human tumour cell line panel, 48 h.
As for `C=CCN1C(=O)/C(=C/c2ccco2)N=C1SC/C=C/C`, the TGI is greater than 100 µM.
Still for that read-out and setting: the same measure for `Clc1ccc(C2SCc3nc4ccccc4n32)c(Cl)c1` (stereo not drawn): 28.8 µM.

The subject of a further test is HCT-116 colon. Put plainly: DTP human tumour cell line panel, 48 h.
Molecule `CCOc1ccc2c(c1)[n+]([O-])c(-c1ccc(Cl)cc1)c(N)[n+]2[O-]` gave a concentration for total growth inhibition (TGI) greater than 100 µM.
`C=CCN1C(=O)/C(=C/c2ccco2)N=C1SC/C=C/C` yielded a concentration for total growth inhibition (TGI) greater than 100 µM.
`CN(C)CC/C(=N\Nc1ccc([N+](=O)[O-])cc1)c1ccccc1` yielded a TGI of 24 µM.
As to `Clc1ccc(C2SCc3nc4ccccc4n32)c(Cl)c1` (stereo not drawn), the TGI was found to be 27.6 µM.

The test system of another test is HCT-15 colon. As to the kind of experiment: DTP human tumour cell line panel, 48 h.
`CCOc1ccc2c(c1)[n+]([O-])c(-c1ccc(Cl)cc1)c(N)[n+]2[O-]` showed a total growth inhibition concentration (TGI) greater than 100 µM.
In turn, `C=CCN1C(=O)/C(=C/c2ccco2)N=C1SC/C=C/C` showed a TGI greater than 100 µM.
`CN(C)CC/C(=N\Nc1ccc([N+](=O)[O-])cc1)c1ccccc1` came in with a concentration for total growth inhibition (TGI) of 27.2 µM.
For the molecule `Clc1ccc(C2SCc3nc4ccccc4n32)c(Cl)c1` (stereo not drawn), the TGI was determined as 37.5 µM.

A further test concerns HL-60(TB) leukemia. Put plainly: DTP human tumour cell line panel, 48 h.
The molecule `CCOc1ccc2c(c1)[n+]([O-])c(-c1ccc(Cl)cc1)c(N)[n+]2[O-]` displayed a concentration for total growth inhibition (TGI) greater than 100 µM.
Molecule `C=CCN1C(=O)/C(=C/c2ccco2)N=C1SC/C=C/C` registered a TGI of 76 µM.
`CN(C)CC/C(=N\Nc1ccc([N+](=O)[O-])cc1)c1ccccc1` came in with a total growth inhibition concentration (TGI) of 16.3 µM. This TGI is about 4.7-fold lower than that of the molecule before.
Same read-out and setting: the same measure for `Clc1ccc(C2SCc3nc4ccccc4n32)c(Cl)c1` (stereo not drawn): 28.3 µM.

Broadly, the TGI is the concentration at which net growth stops. Low values mean greater sensitivity of the cells, high ones lower sensitivity of the cells.
